Data on ten molecules can be found in PubChem BioAssay (NCI).

Some test systems named below: SK-MEL-28 melanoma; UO-31 renal; CAKI-1 renal; A498 renal; NCI-H226 lung; SK-OV-3 ovarian; HT29 colon; RXF 393 renal; SR leukemia; U251 CNS; DLD-1 colon.
Holding throughout (test): NCI-60 cell line screen, 48 h

Molecules are shown by their SMILES.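 Grown in 96-well plates, cells were treated for 48 hours with each compound at five concentrations. Insufficient inhibition: endpoint recorded as highest concentration tested. GI50 marks 50% less growth. Definition used: TGI = concentration required for complete inhibition of growth.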

With `O=C1c2ccccc2-c2ccc(NC(=O)C3CCCCC3C(=O)O)cc21` (stereo not given), the TGI with SK-MEL-28 melanoma, in the experiment on UO-31 renal, in the experiment on CAKI-1 renal, with A498 renal, with NCI-H226 lung and with SK-OV-3 ovarian was above 100 µM in each case. Also, the TGI in the experiment on HT29 colon, with RXF 393 renal, with SR leukemia and in the experiment on U251 CNS was above 100 µM in each case.

As to `O=CNc1cccc2c3c([nH]c12)CCCCCC3`, the TGI in the experiment on SK-MEL-28 melanoma, in the experiment on UO-31 renal, in the experiment with CAKI-1 renal, in the experiment on A498 renal, in the experiment on DLD-1 colon and in the experiment on NCI-H226 lung was above 100 µM throughout. The TGI in the experiment with SK-OV-3 ovarian, in the experiment on HT29 colon, in the experiment on RXF 393 renal and with U251 CNS was above 100 µM throughout.

For `CC(C)(C)OC(=O)NC(Cc1ccccc1)C(=O)N[C@H]1c2ccsc2/C(=N/O)[C@H]1O` (stereo not given in full), the TGI with UO-31 renal, with CAKI-1 renal, in the experiment on A498 renal, in the experiment with NCI-H226 lung, with SK-OV-3 ovarian and with HT29 colon was above 100 µM throughout. The TGI in the experiment with RXF 393 renal, in the experiment with SR leukemia and in the experiment with U251 CNS was above 100 µM in each case.

Turning to `CCOC(=O)C1C(c2cc(OC)c(O)c(OC)c2)c2cc3c(cc2OC1(C)O)OCO3` (stereo not given), the TGI in the experiment on SK-MEL-28 melanoma was above 100 µM; in the experiment with UO-31 renal, above 100 µM; in the experiment with CAKI-1 renal it was 95.2 µM; in the experiment with DLD-1 colon, above 100 µM; in the experiment on SK-OV-3 ovarian, above 100 µM; in the experiment on HT29 colon, above 100 µM. In the experiment on U251 CNS, this molecule displayed a TGI above 100 µM.

Take `C=C1C(=O)O[C@H]2C1[C@H](OC(=O)/C(C)=C\COC(C)=O)C[C@]1(CO1)[C@@H]1[C@H](O)[C@H]3O[C@@]3(C)[C@@H]12` (stereo not given in full): the TGI with SK-MEL-28 melanoma was 31.7 µM; in the experiment with UO-31 renal it was above 100 µM; in the experiment with CAKI-1 renal, 31.5 µM; in the experiment with A498 renal, 99 µM; in the experiment with DLD-1 colon, 34.1 µM; with NCI-H226 lung it was 78.1 µM. The TGI with SK-OV-3 ovarian was above 100 µM; in the experiment on HT29 colon it was 40.8 µM; in the experiment with RXF 393 renal, 32.9 µM; in the experiment on U251 CNS it was 44.7 µM.

With `Cc1cc(NS(=O)(=O)c2ccc(Nc3c4ccccc4nc4c(C(=O)NCCN(C)C)ccc(Cl)c34)cc2)no1`, the TGI stood at 16.1 µM with SK-MEL-28 melanoma; 7.84 µM in the experiment on UO-31 renal; 17 µM with DLD-1 colon; 4.57 µM in the experiment on NCI-H226 lung; 14.4 µM in the experiment with HT29 colon; 22.8 µM in the experiment on RXF 393 renal. The TGI turned out to be 10.8 µM in the experiment on SR leukemia and 13.6 µM in the experiment on U251 CNS.

For the molecule `Cc1ccc2c(c1)c(=O)c1c(NCCN(C)C)ccc3nnn2c31`, the TGI is 18 µM in the experiment on SK-MEL-28 melanoma; 23.9 µM in the experiment with UO-31 renal; 12.3 µM in the experiment with CAKI-1 renal; 12 µM in the experiment with A498 renal; 20 µM in the experiment with DLD-1 colon; 10.3 µM in the experiment on NCI-H226 lung. The TGI in the experiment on SK-OV-3 ovarian worked out at 37.6 µM; in the experiment on HT29 colon it was 12 µM; in the experiment on RXF 393 renal, 16.9 µM; with SR leukemia, 7.67 µM; with U251 CNS it was 16.9 µM.

Turning to `CCCCc1ccc2[n+](c1)C(C(=O)OCC)=PC2` (stereo not given), the TGI in the experiment on SK-MEL-28 melanoma, in the experiment on CAKI-1 renal, in the experiment on A498 renal, in the experiment on SK-OV-3 ovarian, in the experiment on HT29 colon and with RXF 393 renal was above 100 µM throughout. Also, the TGI in the experiment with SR leukemia and in the experiment with U251 CNS was above 100 µM throughout.

As for `COc1cc(N=Nc2cccc(S(=O)(=O)O)c2)c(C)cc1N=Nc1ccc(/C=C/c2ccc(N=[N+]([O-])c3ccc(/C=C/c4ccc(N=Nc5cc(C)c(N=Nc6cccc(S(=O)(=O)O)c6)cc5OC)cc4)c(S(=O)(=O)O)c3)cc2S(=O)(=O)O)cc1`, the TGI in the experiment on SK-MEL-28 melanoma, in the experiment with UO-31 renal, in the experiment with A498 renal, with DLD-1 colon, with NCI-H226 lung and in the experiment on SK-OV-3 ovarian was above 100 µM throughout. Also, the TGI in the experiment on HT29 colon, in the experiment on RXF 393 renal and with U251 CNS was above 100 µM throughout.

Consider `COC(=O)C(C)N1C(=O)c2ccccc2I1OC(C)=O` (stereo not given), for which the GI50 is 88 µM in the experiment with SK-MEL-28 melanoma; 54.2 µM with UO-31 renal; above 100 µM in the experiment on CAKI-1 renal; above 100 µM in the experiment with NCI-H226 lung; above 100 µM with SK-OV-3 ovarian; 26.3 µM in the experiment on HT29 colon. For the same molecule, the results for the GI50 in the experiment on RXF 393 renal, in the experiment with SR leukemia and in the experiment on U251 CNS were 32.3 µM, 19.7 µM and 34.8 µM, respectively. Further, the TGI is above 100 µM in the experiment with SK-MEL-28 melanoma; above 100 µM in the experiment on UO-31 renal; above 100 µM in the experiment on CAKI-1 renal; above 100 µM in the experiment with NCI-H226 lung; above 100 µM in the experiment on SK-OV-3 ovarian; 97.5 µM in the experiment on HT29 colon. The TGI is above 100 µM in the experiment on RXF 393 renal, 49.2 µM with SR leukemia and above 100 µM with U251 CNS.
